Results taken from ChEMBL document CHEMBL1158254, “HIV inhibitory natural products. 26. Quinoline alkaloids from Euodia roxburghiana” (J Nat Prod, 1996).
pIC50: −log10 of the molar value. Calls of active or inactive are those of the source. The rule behind the calls is not given here.

Experiments:
[1] = system: Human immunodeficiency virus 1; assay: Antiviral activity against HIV1 infected in CEM-SS cells assessed as virus-induced cytopathic effect by XTT assay; format: functional, organism-based; conditions: for pIC50: Human immunodeficiency virus 1, CEM-SS
[2] = target: Human immunodeficiency virus type 1 reverse transcriptase (Human immunodeficiency virus 1, UniProt Q72547); assay: Inhibition of HIV1 reverse transcriptase

| pIC50 [2] | SMILES | Activity [1] | pIC50 [1] |
| --- | --- | --- | --- |
| – | COC(=O)/C(C)=C/COc1ccc2c(OC)c3ccoc3nc2c1 | inactive | – |
| 4.92 | C=CC(C)(C)C1(CC=C(C)C)C(=O)Nc2ccccc2C1=O (configuration not stated) [BUCHAPINE] | – | 4.54 |
| – | COC(=O)[C@@H](C)CCOc1ccc2c(OC)c3ccoc3nc2c1 | inactive | – |
| 5.10 | CC(C)=CCOc1c(CC=C(C)C)c(O)nc2ccccc12 | – | 4.57 |
| – | COc1c2ccc(OCC[C@H](C)O)cc2nc2occc12 | inactive | – |
